Laboratory results taken from patent publication US11731955B2, “Crystal habit of quinoline derivative and preparation method for crystalline powder thereof” (CHIA TAI TIANQING PHARMACEUTICAL GROUP CO., LTD, priority 2018, dated 2023).
Structures can show the parent of a compound that is named as a salt.

Experiments:
Type in all cases: physicochemical
[1] = Specific surface area by multipoint BET measurement; details: for A (specific surface area): pulverized powders, dihydrochloride
Protocol: In the present application, the specific surface area A used herein refers to the total area per unit mass (m^2/g), as determined by multipoint BET specific surface area measurement.
The specific surface area was determined by multipoint BET specific surface area measurement, in which the absolute adsorption quantity of nitrogen in a sample was measured under different partial pressures, and the single-layer adsorption quantity was calculated by the BET theory, thus giving the specific surface area.

[2] = Particle-size distribution by laser particle size analyzer; details: laser particle-size distribution of pulverized powders; dihydrochloride
Description: “X10” as used herein refers to the particle size for 10% of the particles in the particle size distribution, i.e., the fraction of particles smaller than this particle size accounts for 10% of all particles; “X50” refers to the particle size for 50% of the particles in the particle size distribution, i.e., the fraction of particles smaller than this particle size accounts for 50% of all particles; “X90” refers to a particle size for 90% of the particles in the particle size distribution, i.e., the fraction of particles smaller than this particle size accounts for 90% of all particles.
The particle-size distribution of the materials was determined by laser. Instrument: fully automatic dry and wet two-in-one laser particle size analyzer, VIBRI (HELOSBR).

[3] = Dissolution properties of powders by basket method; details: 100 rpm, dihydrochloride; for Cumulative dissolution % (0.1 mol/L hydrochloric acid): 1000 mL
Protocol: The dissolution properties of powders 1 and 2 in 1000 mL of 0.1 mol/L aqueous hydrochloric acid solution and a standard medium of 10 mM phosphate buffer containing 0.075% SDS, pH 6.8 were measured by basket method at 100 rpm and compared.

[4] = Determination of solubility (saturation concentration); details: for solubility thermodynamic at 24 h: aqueous buffer, thermodynamic from solid, shaker at 37° C.
Protocol: 14.16 mg of the crystalline powder of the compound of the formula II acquired in Example 1 was dissolved, shaken overnight (24 hours) on a shaker at 37° C. and cooled to room temperature. The saturation concentration was measured using the supernatant. As a result, the saturation concentrations in the phosphoric acid solutions at pH 6.8 and 7.0 for 24 hours were 0.8 and 0.3 μg/mL, respectively.

With `COc1cc2c(Oc3ccc4[nH]c(C)cc4c3F)ccnc2cc1OCC1(N)CC1` [Powder 1, Anlotinib dihydrochloride] the “A (specific surface area)” value [1] was 11.09 ± 0.04 m^2/g, the X50 [2] was 3.96 μm and the X90 [2] was 64.89 μm. The “Cumulative dissolution % (10 mM phosphate buffer containing 0.075% SDS, pH 6.8)” value ([3]; 3 min) was 77.4%, the “Cumulative dissolution % (0.1 mol/L hydrochloric acid)” value ([3]; 3 min) was 89.6% and the “Cumulative dissolution % (10 mM phosphate buffer containing 0.075% SDS, pH 6.8)” value ([3]; 5 min) was 90.2%. For the same molecule, the “Cumulative dissolution % (0.1 mol/L hydrochloric acid)” value ([3]; 5 min) was 94.2%.

In the case of `COc1cc2c(Oc3ccc4[nH]c(C)cc4c3F)ccnc2cc1OCC1(N)CC1` [Example 1, Anlotinib dihydrochloride], the “Biopharmaceutical Classification System (BCS) solubility classification” value [4] is reported as “low solubility”, the solubility thermodynamic at 24 h ([4]; phosphoric acid solution pH 6.8, 24 hours) is reported as 0.8 µg/mL and the solubility thermodynamic at 24 h ([4]; phosphoric acid solution pH 7.0, 24 hours) is reported as 0.3 µg/mL.

In the case of `COc1cc2c(Oc3ccc4[nH]c(C)cc4c3F)ccnc2cc1OCC1(N)CC1` [Powder 2, Anlotinib dihydrochloride], the “A (specific surface area)” value [1] is reported as 13.07 ± 0.05 m^2/g, the X50 [2] is reported as 2.66 μm and the X90 [2] is reported as 14.01 μm. For the same molecule, the “Cumulative dissolution % (10 mM phosphate buffer containing 0.075% SDS, pH 6.8)” value ([3]; 3 min) was 80.1%, the “Cumulative dissolution % (0.1 mol/L hydrochloric acid)” value ([3]; 3 min) was 93.7% and the “Cumulative dissolution % (10 mM phosphate buffer containing 0.075% SDS, pH 6.8)” value ([3]; 5 min) was 86.4%. The “Cumulative dissolution % (0.1 mol/L hydrochloric acid)” value ([3]; 5 min) was 95.8%.

Molecule `COc1cc2c(Oc3ccc4[nH]c(C)cc4c3F)ccnc2cc1OCC1(N)CC1` [Anlotinib dihydrochloride, reference compound] has a specific surface area ([1]; bulk crystal recrystallized in ethanol (Comparative Example 1)) of 3.4750 m^2/g.
